Experimental data taken from patent publication US20230219965A1 (KSQ Therapeutics, Inc., priority 2020, published 2023).
pIC50: −log10 of the molar value. Where two headings read alike, the source gives them in different places.

Assays:
[1] = Liver microsomal metabolic stability, human liver microsomes (HLM); settings: human, liver microsomes
Experimental: Samples were prepared by adding 222.5 μL of a master solution (100 mM phosphate buffer and 1 mg/mL liver microsomes (HLM or RLM)) and 25 μL of a 10 mM NADPH solution to incubation plates, which were then warmed for 10 min. Each compound was separately dissolved in DMSO to prepare 10 mM stock solutions, which were then diluted to 100 μM with acetonitrile. A reaction was started by adding 2.5 μL of the 100 μM solution of each compound to separate incubation plates such that the final concentration of for each compound in each plate was 1 μM.
25 μL aliquots of each sample were taken at 0.5, 5, 10, 15, 20 and 30 minutes, and the reaction was stopped by adding 5 volumes of cold acetonitrile with IS (100 nM alprazolam, 200 nM caffeine and 100 nM tolbutamide). The samples were then centrifuged at 3,220 G for 30 minutes, and 100 μL of the supernatant fluid was mixed with 100 μL of ultra-pure H2O.
The samples were then analyzed by LC-MS/MS. Peak areas were determined from extracted ion chromatograms. Slope values (k) were determined by linear regression of the natural logarithm of the remaining percentage of the compound vs. incubation time curve. The in vitro half-life (in vitro t1/2) was determined from the slope value using the following equation:

USP1/UAF1 enzyme = USP1/UAF1 enzyme (Homo sapiens, UniProt O94782); experiment: USP1/UAF1 deubiquitination assay (ubiquitin-rhodamine 110 substrate); assay type: biochemical; settings: read-out: USP1 IC50 (Ub-Rho)
Summary of the method: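 Cleavage of 150 nM ubiquitin-rhodamine 110 by 0.05 nM USP1/UAF1 was followed as fluorescence (Ex480/Em540, kinetic, 30 min) in Tris-HCl pH 7.8 buffer with EDTA, BSA, DTT and Tween-20. Compounds, top 10 μM, were preincubated with enzyme 10 min; % inhibition against no-enzyme and DMSO wells gave four-parameter IC50s.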

[2] = tested on: Ub-PCNA levels in the nucleus of ES2 cells (USP1 activity); experiment: ES2 Ub-PCNA immunofluorescence (IF) assay; assay type: cell-based; settings: ES2 cells, 3 hours, Ub-PCNA immunofluorescence, read-out: USP1 IC50 (Ub-PCNA)
Experimental: USP1 is a deubiquitinating enzyme that removes ubiquitin from mono-ubiquitinated Proliferating Cell Nuclear Antigen (Ub-PCNA). The levels of Ub-PCNA in the nucleus of cells can be used to assess the activity of USP1. An immunofluorescence assay can be established to monitor Ub-PCNA levels in the ovarian cancer cell line, ES2.
An assay can be performed by first plating 5000 ES2 cells per well in black 96 well plates (Corning #3904) and then incubating overnight at 37° C. and 5% CO2. Compounds, resuspended in DMSO, can be added to the cells, to a final DMSO concentration of 0.3%. Plates can be incubated at 37° C. and 5% CO2 for 3 hours.
Cells can be then fixed and stained by first removing the media from each plate and fixing the cells with −20° C. methanol for 5 minutes at room temperature. Fixation plates can be washed with Tris buffered saline with tween (Boston Bioproducts #IBB-855) 5 times for 5 minutes each. Plates can be blocked for 1 hour with 50 μl of Odyssey blocking buffer (Licor #327-50000) at room temperature with rocking. Block can be removed from all wells and 50 μl of primary antibody was added to each well. Ub-PCNA ab (Cell Signaling Technology #13439) can be diluted at 1:400 in Odyssey blocking buffer. Plates can be sealed and incubated overnight at 4° C. Primary antibodies can be removed from the plates and plates can be washed with Tris buffered saline with tween 5 times for 5 minutes. Plates can be stained for 1 hour at room temperature with rocking with 50 μl of secondary antibodies diluted 1:10,000 in Odyssey blocking buffer at room temperature (anti-rabbit Alexa 488). Antibodies can be removed from the plates and plates can be washed with Tris buffered saline with tween 3 times for 5 minutes. Plates can be washed once with DAPI (Chemometec #910-3012) stain diluted 1:5000 (Stock solution of 500 μg/ml) in tris buffered saline with tween for 5 minutes. DAPI stain can be removed and plates can be washed one additional time for 5 minutes with tris buffered saline with tween. Wash can be removed from the plate and 100 μl tris buffered saline with tween can be added back to all wells, Plates can be sealed with Foil seals or black plate seals and plates can be stored at 4° C. until they can be imaged.
Imaging of the plates can be performed by first locating the nuclei using the DAPI stain. A mask can be created by drawing a circle slightly smaller than each nucleus. Ub-PCNA intensities can be measured for each individual nucleus counted. A histogram of all Ub-PCNA nuclear intensities measured in untreated wells can be generated and a 95% cutoff can be established. This 95% cutoff can be used to determine the number of Positive cells that have Ub-PCNA values higher than the 95% cutoff. The number of positive cells can be expressed as a percentage by dividing by the total number of cells in the well. This percent positive value can be used to graph all data and to determine AC50 values.
USP1 is a deubiquitinating enzyme that removes ubiquitin from mono-ubiquitinated
Proliferating Cell Nuclear Antigen (Ub-PCNA). The levels of Ub-PCNA in the nucleus of cells was used to assess the activity of USP1. An immunofluorescence assay was established to monitor Ub-PCNA levels in the ovarian cancer cell line, ES2.
This assay was performed by first plating 5000 ES2 cells per well in black 96 well plates (Corning #3904) and then incubated overnight at 37° C. and 5% CO2. Compounds, resuspended in DMSO, were added to the cells, to a final DMSO concentration of 0.3%. Plates were incubated at 37° C. and 5% CO2 for 3 hours.
Cells were then fixed and stained by first removing the media from each plate and fixing the cells with −20° C. methanol for 5 minutes at room temperature. Following fixation plates were washed with Tris buffered saline with tween (Boston Bioproducts ABB-855) 5 times for 5 minutes each. Plates were blocked for 1 hour with 50μ.1 of Odyssey blocking buffer (Licor #327-50000) at room temperature with rocking. […]

[3] = ADME solubility determination in PBS at pH 2.0 and pH 7.4; assay type: physicochemical; settings: for solubility at 24 h: phosphate buffered saline, 25 °C, thermodynamic from solid
Summary of the method: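 Solubility was read by LC-MS/MS on centrifuged supernatants, calibrated to a known-concentration standard and corrected for dilution. Compound, dried down from 10 mM DMSO stock, was equilibrated 24 h at 25° C with shaking in PBS at pH 2.0 or pH 7.4.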

[4] = Liver microsomal metabolic stability, rat liver microsomes (RLM); settings: rat, liver microsomes, t1/2 (min) in RLM, 1 μM compound, 1 mg/mL microsomes, NADPH
[5] = pH 2, aqueous buffer, PBS pH 2.0, 25° C., read-out: Solubility at pH 2.0
[6] = pH 7.4, aqueous buffer, PBS pH 7.4, 25° C., read-out: Solubility at pH 7.4

Sequence of USP1/UAF1 enzyme (O94782 whole entry): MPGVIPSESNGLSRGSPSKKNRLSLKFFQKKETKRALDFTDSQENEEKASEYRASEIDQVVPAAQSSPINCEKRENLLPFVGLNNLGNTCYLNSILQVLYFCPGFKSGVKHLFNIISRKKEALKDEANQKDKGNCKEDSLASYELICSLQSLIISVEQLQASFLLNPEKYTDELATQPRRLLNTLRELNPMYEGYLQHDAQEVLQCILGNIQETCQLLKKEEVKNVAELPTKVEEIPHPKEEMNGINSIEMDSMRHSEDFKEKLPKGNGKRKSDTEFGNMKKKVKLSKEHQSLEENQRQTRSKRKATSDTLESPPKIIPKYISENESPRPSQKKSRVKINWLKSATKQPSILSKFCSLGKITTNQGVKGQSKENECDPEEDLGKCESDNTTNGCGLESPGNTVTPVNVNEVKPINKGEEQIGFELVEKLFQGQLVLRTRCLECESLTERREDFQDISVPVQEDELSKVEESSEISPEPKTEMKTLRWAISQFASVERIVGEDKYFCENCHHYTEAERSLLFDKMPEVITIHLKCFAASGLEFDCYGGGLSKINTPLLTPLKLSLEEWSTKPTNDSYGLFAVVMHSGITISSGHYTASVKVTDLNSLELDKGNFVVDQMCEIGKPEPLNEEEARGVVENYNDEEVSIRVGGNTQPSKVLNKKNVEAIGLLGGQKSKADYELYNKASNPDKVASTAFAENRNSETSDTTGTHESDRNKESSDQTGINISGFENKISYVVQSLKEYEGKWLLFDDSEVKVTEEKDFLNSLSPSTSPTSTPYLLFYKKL
Sequence of USP1/UAF1 enzyme (Q8TAF3 whole entry partner): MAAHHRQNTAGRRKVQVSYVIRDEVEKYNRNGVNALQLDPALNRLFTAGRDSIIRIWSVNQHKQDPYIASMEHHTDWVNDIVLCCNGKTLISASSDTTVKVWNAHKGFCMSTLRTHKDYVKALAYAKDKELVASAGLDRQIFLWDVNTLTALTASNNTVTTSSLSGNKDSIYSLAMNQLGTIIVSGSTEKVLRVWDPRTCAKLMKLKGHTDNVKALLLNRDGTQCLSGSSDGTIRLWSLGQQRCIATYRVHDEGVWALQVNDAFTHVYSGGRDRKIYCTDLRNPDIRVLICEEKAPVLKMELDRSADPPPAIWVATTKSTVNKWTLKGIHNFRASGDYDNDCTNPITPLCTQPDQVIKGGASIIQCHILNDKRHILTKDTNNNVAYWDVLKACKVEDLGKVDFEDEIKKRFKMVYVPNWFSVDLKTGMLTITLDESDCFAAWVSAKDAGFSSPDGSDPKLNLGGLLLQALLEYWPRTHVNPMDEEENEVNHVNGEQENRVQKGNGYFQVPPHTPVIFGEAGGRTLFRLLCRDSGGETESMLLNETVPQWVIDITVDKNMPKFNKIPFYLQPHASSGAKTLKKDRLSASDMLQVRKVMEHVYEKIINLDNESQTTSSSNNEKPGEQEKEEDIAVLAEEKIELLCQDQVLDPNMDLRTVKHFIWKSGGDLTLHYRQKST

| Compound | half-life at 1 μM [1] | pIC50 (USP1/UAF1 enzyme) | pIC50 ([2]; Homo sapiens, ES-2) | solubility at 24 h [3, 5] | solubility at 24 h [3, 6] | half-life at 1 μM [4] | pIC50 [2] | Solubility at pH 2.0 (μM) ([3]; PBS pH 2.0, 25° C., 24 hours) | Solubility at pH 7.4 (μM) ([3]; PBS pH 7.4, 25° C., 24 hours) |
| --- | --- | --- | --- | --- | --- | --- | --- | --- | --- |
| COc1ncnc(C2CC2)c1-c1cc2n(n1)CCC(C)N2Cc1ccc(-c2nc(C(F)(F)F)cn2C)cc1 (racemic) [Example 48, 2-(4-cyclopropyl-6-methoxypyrimidin-5-yl)-5-methyl-4-(4-(1-methyl-4-(trifluoromethyl)-1H-imidazol-2-yl)benzyl)-4,5,6,7-tetrahydropyrazolo[1,5-α]pyrimidine] | < 25 min | > 7.00 | > 7.00 | ≥ 10 µM | ≥ 10 µM | < 25 min | – | – | – |
| CCn1cc(C(F)(F)F)nc1-c1ccc([C@@H](C)N2CCCn3nc(-c4c(Cl)cnn4C(C)C)cc32)cc1 (single isomer, unassigned) [Example 68] | < 25 min | > 7.00 | > 7.00 | < 10 µM | < 10 µM | < 25 min | – | – | – |
| CCn1cc(C(F)(F)F)nc1-c1ccc(N[C@H]2CCCn3nc(-c4c(Cl)cnn4C(C)C)cc32)cc1 (single isomer, unassigned) [Example 239] | > 25 min | > 7.00 | > 7.00 | < 10 µM | < 10 µM | > 25 min | – | – | – |
| CCn1cc(C(F)(F)F)nc1-c1ccc(N[C@H]2CCCn3nc(-c4c(OC)ncnc4C4CC4)cc32)cc1 (single isomer, unassigned) [Example 242] | > 25 min | > 7.00 | 6.30 to 7.00 | < 10 µM | < 10 µM | > 25 min | – | – | – |
| CCn1cc(C(F)(F)F)nc1-c1ccc(N[C@@H]2CCCn3nc(-c4c(OC)ncnc4C4CC4)cc32)cc1 (single isomer, unassigned) [Example 243] | > 25 min | > 7.00 | 6.30 to 7.00 | ≥ 10 µM | < 10 µM | > 25 min | – | – | – |
| CCn1cc(C(F)(F)F)nc1-c1ccc(O[C@H]2CCCn3nc(-c4c(OC)ncnc4C4CC4)cc32)cc1F (single isomer, unassigned) [Example 263] | > 25 min | > 7.00 | > 7.00 | < 10 µM | < 10 µM | > 25 min | – | – | – |
| CCn1cc(C(F)(F)F)nc1-c1ccc([C@H](C)N2C(=O)CCn3nc(-c4c(C#N)cnn4C(C)C)cc32)cc1F (single isomer, unassigned) [Example 325] | > 25 min | 6.30 to 7.00 | 6.30 to 7.00 | < 10 µM | < 10 µM | > 25 min | – | – | – |
| CCn1cc(C(F)(F)F)nc1-c1ccc(CN2C(=O)[C@H](C)Cn3nc(-c4c(OC)ncnc4C4CC4)nc32)cc1F (single isomer, unassigned) [Example 348] | > 25 min | > 7.00 | > 7.00 | ≥ 10 µM | ≥ 10 µM | > 25 min | – | – | – |
| Cc1cnn(C(C)C)c1-c1cc2n(n1)CCCN2Cc1ccc(-c2nc(C(F)(F)F)cn2C)cc1 [Example 47, 2-(1-isopropyl-4-methyl-1H-pyrazol-5-yl)-4-(4-(1-methyl-4-(trifluoromethyl)-1H-imidazol-2-yl)benzyl)-4,5,6,7-tetrahydropyrazolo[1,5-α]pyrimidine] | – | > 7.00 | – | – | – | – | > 7.00 | ++ (“++” indicates 10 μM or greater) | + (“+” indicates less than 10 μM) |

The next lines start with results.

| half-life at 1 μM [1] | pIC50 (USP1/UAF1 enzyme) | pIC50 ([2]; Homo sapiens, ES-2) | solubility at 24 h [3, 5] | solubility at 24 h [3, 6] | half-life at 1 μM [4] | Compound | pIC50 [2] | Solubility at pH 2.0 (μM) ([3]; PBS pH 2.0, 25° C., 24 hours) | Solubility at pH 7.4 (μM) ([3]; PBS pH 7.4, 25° C., 24 hours) |
| --- | --- | --- | --- | --- | --- | --- | --- | --- | --- |
| < 25 min | > 7.00 | > 7.00 | ≥ 10 µM | < 10 µM | < 25 min | COc1ncnc(C2CC2)c1-c1cc2n(n1)C(C)CCN2Cc1ccc(-c2nc(C(F)(F)F)cn2C)cc1 (racemic) [Example 51, 2-(4-cyclopropyl-6-methoxypyrimidin-5-yl)-7-methyl-4-(4-(1-methyl-4-(trifluoromethyl)-1H-imidazol-2-yl)benzyl)-4,5,6,7-tetrahydropyrazolo[1,5-α]pyrimidine] | – | – | – |
| < 25 min | > 7.00 | > 7.00 | ≥ 10 µM | < 10 µM | < 25 min | CCn1cc(C(F)(F)F)nc1-c1ccc([C@H](C)N2CCCn3nc(-c4c(Cl)cnn4C(C)C)cc32)cc1 (single isomer, unassigned) [Example 67] | – | – | – |
| > 25 min | > 7.00 | > 7.00 | < 10 µM | < 10 µM | > 25 min | CCn1cc(C(F)(F)F)nc1-c1ccc(N[C@@H]2CCCn3nc(-c4c(Cl)cnn4C(C)C)cc32)cc1 (single isomer, unassigned) [Example 238] | – | – | – |
| > 25 min | > 7.00 | 6.30 to 7.00 | ≥ 10 µM | < 10 µM | > 25 min | CCn1cc(C(F)(F)F)nc1-c1ccc(O[C@@H]2CCCn3nc(-c4c(OC)ncnc4C4CC4)cc32)cc1F (single isomer, unassigned) [Example 264] | – | – | – |
| > 25 min | > 7.00 | 6.30 to 7.00 | < 10 µM | < 10 µM | > 25 min | CCn1cc(C(F)(F)F)nc1-c1ccc([C@H](C)n2c(=O)ccn3nc(-c4c(OC)ncnc4C4CC4)cc23)cc1F (single isomer, unassigned) [Example 334] | – | – | – |
| > 25 min | > 7.00 | > 7.00 | ≥ 10 µM | < 10 µM | > 25 min | CCn1cc(C(F)(F)F)nc1-c1ccc(CN2C(=O)[C@@H](C)Cn3nc(-c4c(OC)ncnc4C4CC4)nc32)cc1F (single isomer, unassigned) [Example 349] | – | – | – |
| – | > 7.00 | 6.30 to 7.00 | ≥ 10 µM | ≥ 10 µM | < 25 min | CCn1cc(C(F)(F)F)nc1-c1ccc(CN2C(=O)CCn3nc(-c4c(Cl)cnn4C(C)(C)COC)cc32)cc1F [Example 162] | – | – | – |
